Measured values as given in patent publication US9642859B2, “Use of capsazepine and analogs thereof to treat cancer” (THE BOARD OF REGENTS OF THE UNIVERSITY OF TEXAS SYSTEM, priority 2012, dated 2017).
Where two headings read alike, the source gives them in different places.

Assays:
[1] = system: CFA-induced thermal hyperalgesia; details: cited from earlier work
[2] = molecular target: T1, TRPA1 (Homo sapiens, UniProt O75762); details: cited from earlier work
Target sequence in this assay (O75762 whole entry, species assumed): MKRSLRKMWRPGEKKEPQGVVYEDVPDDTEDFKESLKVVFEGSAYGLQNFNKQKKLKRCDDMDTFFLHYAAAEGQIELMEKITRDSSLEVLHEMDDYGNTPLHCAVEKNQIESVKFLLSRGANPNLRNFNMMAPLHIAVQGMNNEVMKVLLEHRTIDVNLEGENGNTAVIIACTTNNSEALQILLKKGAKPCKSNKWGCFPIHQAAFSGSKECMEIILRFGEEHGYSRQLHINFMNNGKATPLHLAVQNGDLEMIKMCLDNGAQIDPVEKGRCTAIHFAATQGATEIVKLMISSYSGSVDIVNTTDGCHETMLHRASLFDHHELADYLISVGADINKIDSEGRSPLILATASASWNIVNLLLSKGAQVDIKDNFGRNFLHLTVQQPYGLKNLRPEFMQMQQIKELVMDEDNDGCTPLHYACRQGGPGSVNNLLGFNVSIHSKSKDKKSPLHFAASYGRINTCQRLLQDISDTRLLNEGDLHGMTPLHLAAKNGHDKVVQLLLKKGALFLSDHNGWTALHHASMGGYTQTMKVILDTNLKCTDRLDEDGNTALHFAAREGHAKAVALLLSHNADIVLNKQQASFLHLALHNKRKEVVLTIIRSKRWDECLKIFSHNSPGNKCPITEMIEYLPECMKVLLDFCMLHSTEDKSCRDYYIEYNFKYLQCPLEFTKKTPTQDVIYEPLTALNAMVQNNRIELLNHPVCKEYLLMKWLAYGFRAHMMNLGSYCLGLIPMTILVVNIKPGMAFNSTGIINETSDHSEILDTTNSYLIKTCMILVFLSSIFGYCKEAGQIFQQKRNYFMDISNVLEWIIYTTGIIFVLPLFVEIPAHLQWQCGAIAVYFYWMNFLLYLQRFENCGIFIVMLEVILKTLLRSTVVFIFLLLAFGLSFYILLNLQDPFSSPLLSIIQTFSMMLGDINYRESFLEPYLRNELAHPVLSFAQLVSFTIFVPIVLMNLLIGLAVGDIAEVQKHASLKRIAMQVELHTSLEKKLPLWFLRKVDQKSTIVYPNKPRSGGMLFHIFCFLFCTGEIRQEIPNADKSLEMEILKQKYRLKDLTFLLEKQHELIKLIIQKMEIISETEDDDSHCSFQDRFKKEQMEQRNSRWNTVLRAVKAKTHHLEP

[3] = molecular target: T2, TRPM8 (Homo sapiens, UniProt Q7Z2W7); details: cited from earlier work
Target sequence in this assay (Q7Z2W7 whole entry, species assumed): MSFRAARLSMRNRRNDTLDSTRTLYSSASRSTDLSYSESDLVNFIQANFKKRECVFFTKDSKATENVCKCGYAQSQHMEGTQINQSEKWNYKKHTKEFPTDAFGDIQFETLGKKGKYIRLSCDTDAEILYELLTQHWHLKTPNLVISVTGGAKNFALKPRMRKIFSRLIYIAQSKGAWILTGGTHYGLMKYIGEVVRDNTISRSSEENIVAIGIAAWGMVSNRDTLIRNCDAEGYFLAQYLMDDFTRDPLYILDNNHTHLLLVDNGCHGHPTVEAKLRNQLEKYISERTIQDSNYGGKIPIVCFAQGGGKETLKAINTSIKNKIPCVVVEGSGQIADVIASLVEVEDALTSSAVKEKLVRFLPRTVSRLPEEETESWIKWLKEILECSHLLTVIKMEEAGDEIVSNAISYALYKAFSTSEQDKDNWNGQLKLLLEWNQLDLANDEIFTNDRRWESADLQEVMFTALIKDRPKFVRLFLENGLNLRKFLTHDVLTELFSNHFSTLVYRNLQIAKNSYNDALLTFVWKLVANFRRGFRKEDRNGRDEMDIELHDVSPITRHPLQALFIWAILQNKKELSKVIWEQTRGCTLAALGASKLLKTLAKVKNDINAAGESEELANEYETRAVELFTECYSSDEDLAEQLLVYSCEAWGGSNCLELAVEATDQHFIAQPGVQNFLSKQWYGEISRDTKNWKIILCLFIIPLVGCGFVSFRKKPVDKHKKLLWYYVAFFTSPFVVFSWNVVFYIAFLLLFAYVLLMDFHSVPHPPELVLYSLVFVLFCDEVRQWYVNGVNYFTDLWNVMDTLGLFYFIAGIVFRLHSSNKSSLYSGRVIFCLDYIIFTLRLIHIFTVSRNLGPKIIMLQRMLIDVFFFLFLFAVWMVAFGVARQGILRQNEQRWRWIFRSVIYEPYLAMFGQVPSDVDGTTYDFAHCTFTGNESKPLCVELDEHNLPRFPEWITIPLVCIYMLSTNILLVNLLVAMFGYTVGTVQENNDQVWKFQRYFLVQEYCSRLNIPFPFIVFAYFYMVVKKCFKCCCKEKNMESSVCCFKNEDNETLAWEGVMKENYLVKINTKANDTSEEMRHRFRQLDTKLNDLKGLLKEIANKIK

[4] = molecular target: TRPV3 (Homo sapiens, UniProt Q8NET8); details: read-out: hIC50 at TRPV3; cited from earlier work
[5] = molecular target: T1, TRPA1; details: read-out: hIC50 at TRPA1; cited from earlier work
Target sequence in this assay (O75762 whole entry): as the sequence (O75762 whole entry, species assumed) above

[6] = molecular target: T2, TRPM8; details: read-out: hIC50 at TRPM8; cited from earlier work
Target sequence in this assay (Q7Z2W7 whole entry): as the sequence (Q7Z2W7 whole entry, species assumed) above

[7] = system: CFA-induced mechanical hyperalgesia; details: cited from earlier work
[8] = molecular target: TRPV4 (Homo sapiens, UniProt Q9HBA0); details: read-out: hIC50 at TRPV4; cited from earlier work
[9] = system: partial nerve-ligation model; details: cited from earlier work
[10] = system: OSCC cell lines (HSC3, SCC4, and SCC25); assay: Calcium imaging of OSCC cell lines; assay type: cell-based, human
Procedure: FIGS. 1J-1 to 1J-2. FIGS. 1J-1(a) to (c): […] FIGS. 1J-2(a) to (c): […] Arrow indicates time point when treatment was added. […] This was due to the toxic effects of this high capsaicin concentration which permeablized the cell membrane allowing calcium to flow freely […] the cell. This was not reversed by capsazepine. […] These finding confirm that activation of TRPV1 is not the mechanism by which cell death is induced using capsazepine.

[11] = system: HSC3 cells; assay: Cell viability assay of HSC3 cells, dose response curve; assay type: cell-based; details: Homo sapiens, HSC-3, HSC3 cells, FIG. 1K
Excerpt: FIG. 1K. Cell viability assay of HSC3 cells treated with increasing concentrations of curcumin; […]

[12] = system: immortalized human bronchiolar epithelial cell line transformed with a TRPV1 insert; details: TRPV1-overexpressing cultured cells, treatment with CAP; cited from earlier work
[13] = system: OSCC cell lines (HSC3, SCC4, and SCC25)
Procedure: Cell viability assays reported as % of vehicle control (n=3). […] VEH=delivery vehicle control without CAP or CPZ. *p<0.05, ***p<0.001.
FIG. 1H-1: Cell viability assays of OSCC cell lines treated with 30 μM CPZ alone or in combination with 10 mM N-Acetyl-L-Cysteine (NAC) for 24 h (n=4); ***p<0.001.
Human OSCC Cell Lines. The human OSCC cell lines MDA231, PS3, SCC4 and SCC25 were obtained from ATCC (American Type Culture Collection, Rockville, Md.). The HSC3 cell line was obtained from the Japanese Cell Resource Bank (Osaka, Japan). […] Cells were maintained in DMEM (GIBCO, Carlsbad, Calif.) supplemented with 10% FBS at 37° C. in 5% CO2. Both cell lines were derived from primary OSCC tumors from the tongues of male patients in their fifth generation of life. Data regarding pertinent medical history, treatment, outcome of care and recurrence were not available.
Statistical Analysis. Statistical analyses were performed using GraphPad Prism4 (San Diego, Calif.). Experiments were performed in triplicate and results are represented as means+SD except when indicated. […] Cytotoxicity assays of cell viability were analyzed by one-way ANOVA and Bonferroni's post-hoc test (n=3).

[14] = system: OKF6 cells; assay: Cell viability assay of immortalized non-malignant oral keratinocytes; assay type: cell-based; details: CAP 150 μM, 24 hours
Excerpt: FIG. 1D-2. […] Treatment with high concentrations of CAP induces death of normal, non-malignant OKF6 cells. The effect of which was reversed by the pre-treatment with CPZ.

[15] = system: OSCC cell lines; assay: ROS assays by flow cytometry (DCF-DA); assay type: cell-based, human; details: 1 h
Procedure: FIGS. 1I-1 to 1I-3. Reactive oxygen species (ROS) assays. The level of ROS in OSCC cell lines was examined by flow cytometry using 2,7-dichlorodihydrofluorescein diacetate (DCFH-DA; Sigma). Approximately 3×10^5 cells were plated in 12-well plates. To detect ROS, cells were incubated for 30 min at 37° C. with DCF-DA, washed and then treated for 1 h with 30 μM capsazepine (grey, thick line), 150 μM capsaicin (grey, thin line), 30 μM capsazepine+150 μM capsaicin (black line), or vehicle control (dotted line). The cells were harvested, washed twice, and analyzed by flow cytometry.
FIGS. 1I-4(a)-(b) to 1I-6(a)-(b). Induction of ROS in OSCC cell lines. (a). ROS induction in OSCC cell lines following 1 h treatment with 30 μM CPZ (black line) compared to vehicle control. (b). ROS induction in OSCC cell lines following 1 h treatment with 30 μM CPZ is reversed by NAC co-treatment (black line) as indicated in the shift in their peaks to the left.
ROS levels in OSCC cell lines were examined by flow cytometry using 2,7-dichlorodihydrofluorescein diacetate (DCF-DA; Sigma-Aldrich, St. Louis, Mo.). Cells (3×10^5) were plated in 12-well plates and incubated for 30 min with DCF-DA at 37° C. then treated with 30 μM capsazepine using phenol free media with and without 10 mM NAC. Treated cells were incubated for 1 h at 37° C., harvested, washed twice, and analyzed by FACS.

[16] = molecular target: T3, TRPV1 (Homo sapiens, UniProt Q8NER1); details: read-out: hIC50 (45Ca2+ uptake); cited from earlier work
Target sequence in this assay (Q8NER1 whole entry): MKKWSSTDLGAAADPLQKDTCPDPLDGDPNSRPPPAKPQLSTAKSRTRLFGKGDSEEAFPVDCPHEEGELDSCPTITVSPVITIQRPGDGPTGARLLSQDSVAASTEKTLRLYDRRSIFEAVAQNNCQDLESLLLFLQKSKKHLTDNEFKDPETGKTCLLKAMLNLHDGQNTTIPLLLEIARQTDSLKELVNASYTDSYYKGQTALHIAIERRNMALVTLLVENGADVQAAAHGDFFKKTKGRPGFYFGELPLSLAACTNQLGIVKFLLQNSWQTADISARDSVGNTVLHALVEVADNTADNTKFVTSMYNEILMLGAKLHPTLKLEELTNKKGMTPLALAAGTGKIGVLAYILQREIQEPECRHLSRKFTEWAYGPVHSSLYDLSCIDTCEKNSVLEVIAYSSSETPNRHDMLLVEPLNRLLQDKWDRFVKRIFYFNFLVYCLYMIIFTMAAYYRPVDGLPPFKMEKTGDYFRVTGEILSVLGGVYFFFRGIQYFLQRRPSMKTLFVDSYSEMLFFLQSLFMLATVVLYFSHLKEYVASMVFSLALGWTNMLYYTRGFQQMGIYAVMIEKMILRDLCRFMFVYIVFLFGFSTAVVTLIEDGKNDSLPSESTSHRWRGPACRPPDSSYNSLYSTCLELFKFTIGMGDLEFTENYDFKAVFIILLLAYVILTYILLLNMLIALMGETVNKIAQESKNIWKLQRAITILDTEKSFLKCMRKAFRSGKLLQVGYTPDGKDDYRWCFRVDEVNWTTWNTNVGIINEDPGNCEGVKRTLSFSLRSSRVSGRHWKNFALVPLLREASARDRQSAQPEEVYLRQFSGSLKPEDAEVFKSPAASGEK

[17] = rats, 30 mg per kg, orally; cited from earlier work
[18] = system: bone-cancer pain; details: in vivo model of bone-cancer pain; cited from earlier work
[19] = system: MDA231 breast cancer cells; assay: Cell viability assay of MDA231 cells with and without NAC; assay type: cell-based, human; details: 10 mM NAC
[20] = system: PC3 prostate cancer cells; assay: Cell viability assay of PC3 cells with and without NAC; assay type: cell-based, human; details: 10 mM NAC, prostate cancer cells
[21] = system: carrageenan-induced thermal hyperalgesia; details: cited from earlier work
[22] = molecular target: T3, TRPV1; details: cited from earlier work
Target sequence in this assay (Q8NER1 whole entry, species assumed): as the sequence (Q8NER1 whole entry) above

[23] = molecular target: T3, TRPV1; details: read-out: hKi (FLIPR); cited from earlier work
Target sequence in this assay (Q8NER1 whole entry): as above

[24] = system: TRPV4 and other TRP channels; details: cited from earlier work
[25] = system: capsaicin-evoked flare and acute heat-evoked pain; details: Phase I; cited from earlier work
[26] = cited from earlier work

Chain of TRPV4 (Q9HBA0 whole entry): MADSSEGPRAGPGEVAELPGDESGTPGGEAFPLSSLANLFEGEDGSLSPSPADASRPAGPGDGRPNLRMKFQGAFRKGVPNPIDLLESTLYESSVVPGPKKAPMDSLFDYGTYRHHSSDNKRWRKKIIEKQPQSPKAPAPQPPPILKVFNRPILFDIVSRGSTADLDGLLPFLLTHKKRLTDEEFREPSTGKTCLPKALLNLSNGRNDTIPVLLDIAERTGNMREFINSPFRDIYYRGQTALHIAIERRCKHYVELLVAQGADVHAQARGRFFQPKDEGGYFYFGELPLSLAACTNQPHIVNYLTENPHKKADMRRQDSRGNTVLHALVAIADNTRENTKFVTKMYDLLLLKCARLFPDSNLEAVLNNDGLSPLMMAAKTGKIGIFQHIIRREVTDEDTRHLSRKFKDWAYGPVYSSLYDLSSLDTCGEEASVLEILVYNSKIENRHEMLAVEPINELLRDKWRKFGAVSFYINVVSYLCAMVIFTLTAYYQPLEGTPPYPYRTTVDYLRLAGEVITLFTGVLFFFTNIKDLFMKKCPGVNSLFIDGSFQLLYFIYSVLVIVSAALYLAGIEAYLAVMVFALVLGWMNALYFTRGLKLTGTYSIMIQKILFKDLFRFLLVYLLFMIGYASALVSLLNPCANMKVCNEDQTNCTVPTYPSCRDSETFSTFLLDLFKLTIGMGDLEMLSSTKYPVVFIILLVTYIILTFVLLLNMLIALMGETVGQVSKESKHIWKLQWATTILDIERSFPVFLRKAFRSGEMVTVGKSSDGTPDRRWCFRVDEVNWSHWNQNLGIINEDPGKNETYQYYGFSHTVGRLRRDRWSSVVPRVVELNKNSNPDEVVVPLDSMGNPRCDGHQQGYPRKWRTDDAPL
Chain of TRPV3 (Q8NET8 whole entry): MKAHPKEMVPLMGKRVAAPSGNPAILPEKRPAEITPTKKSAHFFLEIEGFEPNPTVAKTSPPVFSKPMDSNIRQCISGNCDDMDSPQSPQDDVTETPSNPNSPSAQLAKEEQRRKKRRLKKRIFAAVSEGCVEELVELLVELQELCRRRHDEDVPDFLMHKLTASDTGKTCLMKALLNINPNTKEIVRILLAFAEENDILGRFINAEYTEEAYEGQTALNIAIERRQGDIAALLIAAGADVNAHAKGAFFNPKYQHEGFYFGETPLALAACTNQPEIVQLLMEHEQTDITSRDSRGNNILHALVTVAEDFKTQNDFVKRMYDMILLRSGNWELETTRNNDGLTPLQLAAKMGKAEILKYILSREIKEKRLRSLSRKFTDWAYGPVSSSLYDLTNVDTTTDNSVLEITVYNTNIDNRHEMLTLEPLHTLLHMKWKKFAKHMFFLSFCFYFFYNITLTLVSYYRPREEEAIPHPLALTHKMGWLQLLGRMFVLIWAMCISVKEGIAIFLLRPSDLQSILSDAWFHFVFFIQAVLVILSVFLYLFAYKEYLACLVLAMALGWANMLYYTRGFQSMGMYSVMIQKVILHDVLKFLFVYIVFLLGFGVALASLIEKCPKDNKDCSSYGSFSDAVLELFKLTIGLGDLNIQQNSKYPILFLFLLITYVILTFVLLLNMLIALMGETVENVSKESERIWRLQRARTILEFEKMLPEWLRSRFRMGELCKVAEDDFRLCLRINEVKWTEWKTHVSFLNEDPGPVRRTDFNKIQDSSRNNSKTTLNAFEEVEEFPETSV

O=C(NCc1ccc(C(F)(F)F)cc1)Nc1cccc2cnccc12 [A-425619]
ED50, CFA-induced thermal hyperalgesia ([1]; in vivo): 10 mg per kg
IC50 [2]: > 10 µM
IC50 [3]: 8 µM

CC(C)(C)c1ccc(/C=C/C(=O)Nc2ccc3c(c2)OCCO3)cc1 [AMG-9810]
CFA-induced thermal hyperalgesia ([1]; 30 mg per kg): Inhibits
IC50 [4]: > 4 µM
IC50 [5]: > 4 µM
IC50 [6]: > 4 µM
CFA-induced mechanical hyperalgesia ([7]; 100 mg per kg): Inhibits
IC50 [8]: > 4 µM

CC(C)(C)c1ccc(NC(=O)N2CCN(c3ncccc3Cl)CC2)cc1 [BCTC, N-(4-tertiarybutylphenyl)-4-(3-chloropyridin-2-yl)tetrahydropyrazine-1(2H)-carboxamide]
CFA-induced thermal hyperalgesia ([1]; 3-30 mg per kg, orally): Inhibits
tactile allodynia [9]: Reduces
thermal hyperalgesia [9]: Reduces
CFA-induced mechanical hyperalgesia ([7]; 3-30 mg per kg, orally): Inhibits
IC50 [3]: 0.143 µM

COc1cc(CNC(=O)CCCC/C=C/C(C)C)ccc1O [CAP, capsaicin]
calcium influx ([10]; 20 μM capsaicin): fails to cause an influx of calcium
calcium flow ([10]; 150 μM capsaicin (cytotoxic level)): calcium outflow occurred over a prolonged period of time
IC50 [11]: ~150 µM
apoptosis [12]: did result in apoptosis
cell viability / cytotoxic effects ([13]; 30 μM, 24 hrs, HSC3, SCC4, SCC25): does not
cell viability ([13]; 150 μM, HSC3, SCC4 and SCC25): significantly reduces cell viability
cell viability of normal, non-malignant cells [14]: induces death
level of ROS ([15]; 150 μM capsaicin): increase in ROS

Cc1nc2cc(C(C)C)c(-c3ccc(Cl)c(OCC4CC4)c3)cc2c(=O)[nH]1 [Compound 26]
reversal of mechanical hyperalgesia [9]: 57%
reversal of CFA-induced mechanical hyperalgesia ([7]; 30 mg per kg, orally): 60%

C[C@@H]1CN(c2ncc(C(O)CO)cc2Cl)CCN1c1nc2c(-c3cc(F)c(F)c(F)c3)cc(C(F)(F)F)cc2[nH]1 (stereo partly drawn) [Compound 46ad]
IC50 [16]: 0.001 µM
reversal of CFA-induced thermal hyperalgesia ([1]; 30 mg per kg, orally): significant reversal

O=C(Nc1ccc(C(F)(F)F)cn1)N1CCN(c2ncccc2C(F)(F)F)CC1 [JNJ-17203212]
increase in core body temperature [17]: ~1 °C
nocifensive behaviors [18]: Attenuates

CC(=O)N[C@@H](CS)C(=O)O [NAC, N-Acetyl-L-Cysteine]
effect of NAC on the effects of CPZ [19]: reverse significantly
effect of NAC on the effects of CPZ [20]: reverse significantly
effect of NAC on the effects of CPZ ([13]; 10 mM NAC, all OSCC cell lines tested): reverse significantly
ROS induction by 30 μM CPZ with NAC co-treatment ([15]; 10 mM NAC): reversed

FC(F)(F)c1ccc(Nc2ncnc3cc(-c4ncccc4C(F)(F)F)ccc23)cc1 [Quinazoline analog]
block of carrageenan-induced thermal hyperalgesia ([21]; at 3 mg per kg): 80%
MED, carrageenan-induced thermal hyperalgesia ([21]; minimum effective dose): 0.1 mg per kg

COc1cccc(NC(=O)/C=C/c2ccc(Cl)cc2)c1 [SB-366791]
capsaicin and heat-mediated activation of TRPV1 [22]: Inhibits
Ki [23]: 0.018 µM
selectivity versus TRPV4 and other TRP channels [24]: Selective

O=C(Nc1ccccc1Br)N[C@@H]1CCN(c2ccc(C(F)(F)F)cn2)C1 [SB-705498]
acute heat-evoked pain on non-sensitized skin [25]: reduced
capsaicin-evoked flare [25]: reduced

COc1cc(/C=C/C(=O)CC(=O)/C=C/c2ccc(O)c(OC)c2)ccc1O [curcumin]
IC50 [11]: 90 µM

AMG 517
IC50 [16]: 0.0009 µM
block of CFA-induced thermal hyperalgesia ([1]; at 10 mg per kg): ~40%
MED, CFA-induced thermal hyperalgesia ([1]; minimum effective dose): 1 mg per kg
body temperature increases ([26]; doses of 2 mg, in one patient): ~3 °C
hyperthermia ([26]; seen at 0.3-3 mg/kg, oral administration): up to 1.5 °C
